According to PubChem BioAssay (NCI):
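GI50 is the concentration that inhibits growth by half. TGI denotes the concentration required for complete inhibition of growth.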

Experiments:
Experiment in all cases: growth of human tumour cells (NCI), 384-well format
HCT-15 colon = system: HCT-15 colon
RXF 393 renal = system: RXF 393 renal
SF-539 CNS = system: SF-539 CNS
U251 glioblastoma = system: U251 glioblastoma
CAKI-1 renal = system: CAKI-1 renal
SNB-19 CNS = system: SNB-19 CNS
TK-10 renal = system: TK-10 renal
SK-MEL-5 melanoma = system: SK-MEL-5 melanoma
SW-620 colon = system: SW-620 colon
MCF7 breast = system: MCF7 breast
CCRF-CEM leukemia = system: CCRF-CEM leukemia
MDA-MB-231 breast = system: MDA-MB-231 breast
LOX IMVI melanoma = system: LOX IMVI melanoma
UACC-257 melanoma = system: UACC-257 melanoma
COLO 205 colon = system: COLO 205 colon
MOLT-4 leukemia = system: MOLT-4 leukemia
PC-3 prostate = system: PC-3 prostate
RPMI-8226 leukemia = system: RPMI-8226 leukemia
HCT-116 colon = system: HCT-116 colon
NCI-H522 lung = system: NCI-H522 lung
SF-295 CNS = system: SF-295 CNS
NCI/ADR-RES ovarian = system: NCI/ADR-RES ovarian
HL-60(TB) leukemia = system: HL-60(TB) leukemia
UO-31 renal = system: UO-31 renal
OVCAR-8 ovarian = system: OVCAR-8 ovarian
NCI-H460 NSCLC = system: NCI-H460 NSCLC
OVCAR-3 ovarian = system: OVCAR-3 ovarian
SK-MEL-2 melanoma = system: SK-MEL-2 melanoma
SF-268 CNS = system: SF-268 CNS

COc1ccccc1-c1nccc(COc2ccccc2C[C@@H](Oc2ncnc3sc(-c4ccc(F)cc4)c(-c4ccc(OCCN5CCN(C)CC5)c(Cl)c4C)c23)C(=O)O)n1
TGI (HCT-15 colon): 16200 nM | GI50 (RXF 393 renal): 78.6 nM | TGI (RXF 393 renal): 1040 nM | GI50 (SF-539 CNS): 1200 nM | TGI (SF-539 CNS): 2470 nM | GI50 (U251 glioblastoma): 1810 nM | TGI (U251 glioblastoma): 3370 nM | GI50 (CAKI-1 renal): 2750 nM | TGI (CAKI-1 renal): 6510 nM | GI50 (SNB-19 CNS): 1870 nM | TGI (SNB-19 CNS): 3360 nM | GI50 (TK-10 renal): 2380 nM | TGI (TK-10 renal): 5650 nM | GI50 (SK-MEL-5 melanoma): 1470 nM | TGI (SK-MEL-5 melanoma): 2800 nM | GI50 (SW-620 colon): 1880 nM | TGI (SW-620 colon): 3360 nM | GI50 (MCF7 breast): 46.2 nM | TGI (MCF7 breast): 1040 nM | GI50 (CCRF-CEM leukemia): 29.6 nM | TGI (CCRF-CEM leukemia): 801 nM | GI50 (MDA-MB-231 breast): 1570 nM | TGI (MDA-MB-231 breast): 2960 nM | GI50 (LOX IMVI melanoma): 1980 nM | TGI (LOX IMVI melanoma): 3420 nM | GI50 (UACC-257 melanoma): 1700 nM | TGI (UACC-257 melanoma): 3400 nM | GI50 (COLO 205 colon): 1820 nM | TGI (COLO 205 colon): 3540 nM | GI50 (MOLT-4 leukemia): < 10 nM | TGI (MOLT-4 leukemia): 17.7 nM | GI50 (PC-3 prostate): 1820 nM | TGI (PC-3 prostate): 3240 nM | GI50 (RPMI-8226 leukemia): < 10 nM | TGI (RPMI-8226 leukemia): < 10 nM | GI50 (HCT-116 colon): 1940 nM | TGI (HCT-116 colon): 3530 nM | GI50 (NCI-H522 lung): < 10 nM | TGI (NCI-H522 lung): 95.9 nM | GI50 (SF-295 CNS): 1400 nM | TGI (SF-295 CNS): 2720 nM | GI50 (NCI/ADR-RES ovarian): 26800 nM | TGI (NCI/ADR-RES ovarian): > 100000 nM | GI50 (HL-60(TB) leukemia): < 10 nM | TGI (HL-60(TB) leukemia): < 10 nM | GI50 (UO-31 renal): 4230 nM | TGI (UO-31 renal): 14200 nM | GI50 (OVCAR-8 ovarian): 1770 nM | TGI (OVCAR-8 ovarian): 3240 nM | GI50 (NCI-H460 NSCLC): 1330 nM | TGI (NCI-H460 NSCLC): 3540 nM | GI50 (OVCAR-3 ovarian): 1850 nM | TGI (OVCAR-3 ovarian): 3270 nM | GI50 (SK-MEL-2 melanoma): < 10 nM | TGI (SK-MEL-2 melanoma): < 10 nM | GI50 (SF-268 CNS): 1570 nM | TGI (SF-268 CNS): 2930 nM
